Usually Ki stands for the equilibrium dissociation constant of an inhibitor or competing ligand from its target. High values mean weaker binding, low ones tighter binding.

Here are results for four compounds from BindingDB's records for doi:10.3109/14756366.2011.591290 (Agri Ibrahim Cecen University, 2012).

Among the targets are Carbonic anhydrase 6 (Homo sapiens, UniProt P23280); Carbonic anhydrase 2 (Homo sapiens, UniProt P00918); Carbonic anhydrase 1 (Homo sapiens, UniProt P00915).
Common to all, as to assay: CA Activity Assay
Holding throughout (conditions): pH 7.4; 25 °C

Carbonic anhydrase 1, sequence (P00915 whole entry): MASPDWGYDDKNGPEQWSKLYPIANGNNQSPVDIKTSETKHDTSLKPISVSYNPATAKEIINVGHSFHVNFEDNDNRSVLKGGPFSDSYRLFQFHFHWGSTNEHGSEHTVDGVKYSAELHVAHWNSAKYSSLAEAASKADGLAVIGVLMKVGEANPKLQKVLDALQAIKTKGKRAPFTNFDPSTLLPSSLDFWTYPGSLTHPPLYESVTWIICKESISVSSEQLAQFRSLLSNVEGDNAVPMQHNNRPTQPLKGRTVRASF
Carbonic anhydrase 6, sequence (P23280 whole entry): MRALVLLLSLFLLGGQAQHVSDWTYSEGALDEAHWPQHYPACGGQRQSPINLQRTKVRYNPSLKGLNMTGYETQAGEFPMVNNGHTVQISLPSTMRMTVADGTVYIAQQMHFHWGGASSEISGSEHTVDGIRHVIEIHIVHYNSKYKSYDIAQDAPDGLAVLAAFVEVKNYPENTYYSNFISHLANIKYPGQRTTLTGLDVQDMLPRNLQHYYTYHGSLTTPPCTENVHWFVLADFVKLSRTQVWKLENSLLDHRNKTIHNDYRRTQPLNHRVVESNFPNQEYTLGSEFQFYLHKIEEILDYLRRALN

Take `NC1Cc2cc(Br)c(Br)cc2C1` [CA inhibitor, 5]: the inhibitory constant (Ki) was found to be 780 nM on Carbonic anhydrase 6 and 470000 nM at Carbonic anhydrase 2.
In the case of `NC1Cc2ccc(Br)cc2C1` (stereo unspecified) [CA inhibitor, 6], the Ki at Carbonic anhydrase 1 was determined as 161000 nM; at Carbonic anhydrase 6, 580 nM; at Carbonic anhydrase 2 it was 143000 nM.
Take `NC1CCc2c(ccc(O)c2O)C1` (stereo unspecified) [6-Amino-5,6,7,8-tetrahydro-naphthalene-1,2-diol]: the results for the Ki on Carbonic anhydrase 1, on Carbonic anhydrase 6 and on Carbonic anhydrase 2 were 45100 nM, 970 nM and 380 nM, respectively.
In the same order, the values of `NC1CCc2cc(O)c(O)cc2C1` (stereo unspecified) are 41100 nM, 1150 nM and 440 nM.
